The values below come from patent US20170369807A1, “Ionic Liquid, Lubricant, and Magnetic Recording Medium” (Dexerials Corporation, priority 2016, published 2017).

The nature of series [1]: Measurement of thermal stability (TG/DTA). To be noted: for Weight reduction temperature 5% / Weight reduction temperature 10% / Weight reduction temperature 20%: TG/DTA, 30° C. to 600° C., 10° C./min, air 200 mL/min; for thermal stability (in words): compared with Z-DOL and Z-TETRAOL.
The conditions of series [2]: in acetonitrile; cited from earlier work.
A short description of series [3]: Solubility test to solvents (visual observation). To be noted: ultrasonic waves 5 minutes, left 1 day, visually observed, listed as Example 3A, ammonium.
Description: To a predetermined amount of Vertrel XF, n-hexane, or ethanol, the ionic liquid was added. Ultrasonic waves were applied to the resultant mixture for 5 minutes, followed by leaving the mixture to stand for 1 day. The solubility was visually observed.
After applying ultrasonic waves to the resultant for 5 minutes, the resultant was left to stand for 1 day. Thereafter, the solubility was visually observed and evaluated based on the following evaluation criteria.
Similarly, after applying ultrasonic waves to the resultant for 5 minutes, the resultant was left to stand for 1 day. Thereafter, the solubility was visually observed and evaluated based on the following evaluation criteria.
Note that, the solubility was visually observed, and it was judged as soluble when it was transparent. Moreover, it was judged as not soluble (insoluble) when it was opaque or insoluble components were observed.

With `CCCCCCCCCCCCCCCCCCN.O=S(=O)(NS(=O)(=O)C(F)(F)C(F)(F)C(F)(F)C(F)(F)F)C(F)(F)C(F)(F)C(F)(F)C(F)(F)F` [Comp. Ex. 2A, bis(nonafluorobutanesulfonyl)imide-octadecyl ammonium], in series [1], the “Weight reduction temperature 5%” value was found to be 311.8 °C, the “Weight reduction temperature 10%” value is 329.8 °C and the “Weight reduction temperature 20%” value stood at 348.0 °C.
As for “bis(nonafluorobutanesulfonyl)imide-N,N-dimethyl-dodecyl ammonium [Ex. 2A]”, in series [1], the “Weight reduction temperature 5%” value was found to be 308.5 °C, the “Weight reduction temperature 10%” value turned out to be 331.5 °C and the “Weight reduction temperature 20%” value is 353.4 °C.
As for `O=C(O)C(F)(F)C(F)(F)C(F)(F)C(F)(F)C(F)(F)C(F)(F)C(F)(F)F` [pentadecafluorooctanoic acid], in series [2], the pKa was 12.7.
Consider perfluorocyclopropane sulfoimide, for which the pKa in series [2] is −0.8.
For “pentadecafluorooctanoic acid octadecyl ammonium [Comp. Ex. 6A]”, in series [1], the “Weight reduction temperature 5%” value is 206.9 °C, the “Weight reduction temperature 10%” value turned out to be 215.8 °C, the “Weight reduction temperature 20%” value was 223.4 °C and the “thermal stability (in words)” value is recorded as “lacked thermal stability”.
In the case of `O=[N+]([O-])O` [nitric acid], the pKa in series [2] was 9.4.
For the compound `CCCCCCCCCCCCN(CCCCCCCCCCCC)CCCCCCCCCCCC` [Ex. 3A, trifluoromethanesulfonic acid-N,N,N-tridodecyl ammonium], in series [3] (Vertrel XF [CF3(CHF)2CF2CF3], 25° C.), the “Solubility Fluorine-based solvent” value is on record as ≥ 0.2 % by mass. For the same compound, the “Solubility Ethanol” value in series [3] (ethanol) is ≥ 0.5 % by mass. Also, the “Solubility n-Hexane” value in series [3] (n-hexane, 25° C.) is ≥ 0.5 % by mass. Also, the “thermal stability improved compared with Z-DOL” value in series [1] (compared with Z-DOL (Comparative Example 7C)) was ≥ 120 °C. For the same compound, the “thermal stability improved compared with Z-TETRAOL” value in series [1] (compared with Z-TETRAOL (Comparative Example 8C)) was ≥ 45 °C.
Turning to `O=S1(=O)NS(=O)(=O)C(F)(F)C(F)(F)C1(F)F` [hexafluorocyclopropane-1,3-bis(sulfonyl)imide], the pKa in series [2] was −0.8.
For `O=S(=O)(O)C(F)(F)F` [trifluoromethanesulfonic acid], the pKa in series [2] was 0.7.
Turning to “nonafluorobutanesulfonic acid-trimethyloctadecyl ammonium [Comp. Ex. 5A]”, in series [1], the “Weight reduction temperature 5%” value amounted to 340.5 °C, the “Weight reduction temperature 10%” value was determined as 356.2 °C, the “Weight reduction temperature 20%” value was determined as 371.9 °C and the “thermal stability (in words)” value is recorded as “high”.
For `CCCCCCCCCCCCCCCCCCN.O=S1(=O)NS(=O)(=O)C(F)(F)C(F)(F)C1(F)F` [Comp. Ex. 3A, hexafluorocyclopropane-1,3-bis(sulfonyl)imide-octadecyl ammonium], in series [1], the “Weight reduction temperature 5%” value was 329.6 °C, the “Weight reduction temperature 10%” value turned out to be 347.0 °C and the “Weight reduction temperature 20%” value was 365.1 °C.
For `F[B-](F)(F)F.[H+]` [tetrafluoroboric acid], the pKa in series [2] is 1.8.
With `O=S(=O)(O)C(F)(F)C(F)(F)C(F)(F)C(F)(F)F` [nonafluorobutanesulfonic acid], in series [2], the pKa was 0.7.
Take `CCCCCCCCCCCCCCCCCCN(C)C.O=S(=O)(NS(=O)(=O)C(F)(F)C(F)(F)C(F)(F)C(F)(F)F)C(F)(F)C(F)(F)C(F)(F)C(F)(F)F` [Ex. 1A, bis(nonafluorobutanesulfonyl)imide-N,N-dimethyl-octadecyl ammonium]: in series [1], the “Weight reduction temperature 5%” value is 315.7 °C, the “Weight reduction temperature 10%” value came to 337.0 °C and the “Weight reduction temperature 20%” value is 356.7 °C.
Consider “nonafluorobutanesulfonic acid-N-methyloctadecyl ammonium [Comp. Ex. 4A]”, for which, in series [1], the “Weight reduction temperature 5%” value was 346.8 °C, the “Weight reduction temperature 10%” value worked out at 364.0 °C, the “Weight reduction temperature 20%” value is 381.1 °C and the “thermal stability (in words)” value was “high”.
Regarding `O=S(=O)(NS(=O)(=O)C(F)(F)C(F)(F)C(F)(F)C(F)(F)F)C(F)(F)C(F)(F)C(F)(F)C(F)(F)F` [bis(nonafluorobutanesulfonyl)imide], the pKa in series [2] is on record as 0.0.
Take “nonafluorobutanesulfonic acid-octadecyl ammonium [Comp. Ex. 1A]”: in series [1], the “Weight reduction temperature 5%” value was determined as 338.8 °C, the “Weight reduction temperature 10%” value is 355.2 °C, the “Weight reduction temperature 20%” value was 370.4 °C and the “thermal stability (in words)” value is “high”.
